Key:
[1] = 28-day repeated oral dosing safety in German shepherd dogs; format: in vivo, dog; conditions: for sedation / ECG: P-R interval, QRS interval and Q-T interval before vs after treatment / blood levels of AST, ALT, ALP, BUN and fasting blood glucose / hematologic parameters (Hb, HCT, RBCs, MCV, MCHC) before vs after treatment / total number of white blood cells / systolic and diastolic blood pressure / heart rate / tolerability: dogs; for ECG: P-R interval, QRS interval and Q-T interval before vs after treatment / blood levels of AST, ALT, ALP, BUN and fasting blood glucose / hematologic parameters (Hb, HCT, RBCs, MCV, MCHC) before vs after treatment / total number of white blood cells: once daily 60, 120 and 200 mg for 28 days; for systolic and diastolic blood pressure: once daily 60, 120 and 200 mg/d for 28 days; for heart rate: repeated oral dosing for 28 days; for tolerability: therapeutic dose range; for body weight: male and female dogs, once daily 20, 60, 120 and 200 mg/d for 28 days
Experimental: Dog serum concentrations of Compound-1, Compound-1F and Compound-4 were determined with serum isolated from the blood of German shepherd dogs (age: 8-9 months) taken at different time points (2 h, 4 h, 6 h, 8, 10 h, 24 h) after oral drug intake. The steady-state serum concentrations of Compound-1, Compound-1F and Compound-4 were determined in mice with blood isolated at the end of the study by cardiac puncture. Serum proteins were removed by acetonitrile precipitation, and compounds were extracted by chloroform before separation on an HPLC-C18 column (Poroshell 120 EC-C18, Agilent) with an HPLC system (Agilent 1100 Series) and detection at OD 280 nm, for Compound-1 and Compound-1F. Detection of Compound-4 was performed at OD 310 nm. The same extraction method was also used to determine Compound-1F in the serum of healthy human research participants. Dog hematology and biochemical parameters were determined by the Center of Applied Analytical and Veterinary Studies, Cairo, Egypt. ECG and blood pressure were measured by Dr. Mohamed Elsaed, Electrocardiography Unit, Faculty of Veterinary Medicine, Cairo University. The study was approved by the ethical committee of the Center of Applied and Veterinary Studies, Cairo, Egypt. Clinical laboratory parameters of human research participants were determined by the Rabaa El Adaweya Medical Central Hospital, Cairo, Egypt.

male B6 mice = test: Aging-induced deterioration of male sperm quality in B6 mice; format: in vivo, mouse; conditions: 18-month-old male B6 mice, 15 months treatment; for epididymal sperm count / sperm vitality (eosin-nigrosin staining) / total sperm motility: 8 mg/kg/d in drinking water
Experimental: Sperm count, and motility were determined by microscopic semen analysis of male B6 mice at an age of 3 months and 18 months similarly as described (Komori et al., Reprod. Med. Biol. 5, 195-200, 2006). Sperm cells were isolated from male B6 mice from the epididymis as described (Esposito et al., Proc. Nat. Acad. Sci. U.S.A. 101, 2993-2998, 2004). Sperm concentration was determined with a Neubauer hemocytometer. Percentage of sperm motility was determined with a 10 microl sample loaded onto a clean slide glass and covered with a coverslip. Sperm motility was evaluated under positive phase-contrast microscopy at a total magnification of ×400, and graded according to the WHO criteria (Komori et al., Reprod. Med. Biol. 5, 195-200, 2006), i.e. percentage of motile sperm cells was counted, and the percentage of progressive and not progressive sperm motility was determined. At least 300 spermatozoa were evaluated. Spermatozoa viability was determined by eosin-nigrosine staining technique. A drop of spermatozoa suspension in PBS was mixed with one drop of aqueous eosin Y solution (1%), and incubated for 15 s. Thereafter, two drops of 10% aqueous nigrosine solution were added and mixed. An aliquot of this mixture was transferred to a glass slide, a thin smear was made, and air dried. Stained spermatozoa were examined under a light microscope, and the percentage of live sperm cells was determined. Live sperm cells appear white whereas dead sperm cells are coloured pink. Treatment of male B6 mice with Compound-1 and Compound-1F (8 mg/kg/d in drinking water) was started at an age of 3 months and continued until the end of the observation period at an age of 18 months.

Mpp1 = test: Immunoblot of Mpp1 protein content in PBMN cells of aged B6 mice; format: in vivo, mouse; conditions: 18-month-old B6 mice treated for 15 months in drinking water
Excerpt: For protein separation by SDS-PAGE (Laemmli system), the protein pellet can be dissolved in SDS-PAGE sample buffer supplemented with SDS. As an alternative, sample buffer for native gel electrophoresis can be added. According to the original protocol, the SDS-PAGE Laemmli sample buffer contains 2% SDS, 0.1 M DTT (or 5% mercaptoethanol). To improve disaggregation of aggregated proteins, the buffer can be supplemented without or with urea ranging from about 0 M-8 M, preferably about 6 M urea and incubated for about 10 min to 24 h, preferably about 90 min at room temperature. Proteins can be stored frozen (about […]) at a concentration ranging from about 0.01-100 mg/ml, preferably about 0.5 mg-1 mg/ml, for further use. It may be further desirable to dilute the solubilisate, for example, diluting the supernatant solubilisate by 1:1-1:20, preferably 1:5, in a suitable buffer as described above (preferably supplemented with protease inhibitors). Before immunoblot detection of proteins, proteins are separated. For separation of proteins, one- or two-dimensional SDS-PAGE can be applied. […]

Structure (SMILES)	sedation ([1]; daily dose of 120 mg/d)	sedation ([1]; highest dose of 200 mg)	ECG: P-R interval, QRS interval and Q-T interval before vs after treatment [1]	blood levels of AST, ALT, ALP, BUN and fasting blood glucose [1]	hematologic parameters (Hb, HCT, RBCs, MCV, MCHC) before vs after treatment [1]	total number of white blood cells [1]	systolic and diastolic blood pressure [1]	heart rate [1]	tolerability [1]	body weight [1]	decrease in progressive sperm motility (male B6 mice)	epididymal sperm count (male B6 mice)	sperm vitality (eosin-nigrosin staining) (male B6 mice)	total sperm motility (male B6 mice)	Mpp1 protein content in PBMN cells (Mpp1)
O=C(C1=C(O)C(c2ccccc2)N(c2ccc3c(c2)OCO3)C1=O)C1CC1 (stereo not drawn) [Compound-1, 1-(1,3-benzodioxol-5-yl)-4-(cyclopropane-carbonyl)-3-hydroxy-2-phenyl-2H-pyrrol-5-one]	no sedation	showed sedation	not significantly different	did not significantly alter	not significantly different	not altered	did not significantly change systolic and diastolic blood pressure	did not significantly affect heart rate	excellent tolerability	did not significantly change body weight	largely prevented	retarded the aging-induced decrease in epididymal sperm count	maintained sperm vitality	improved total sperm motility	significantly decreased the content of the senescence marker, Mpp1
O=C(C1=C(O)C(c2ccc(F)cc2)N(c2ccc3c(c2)OCO3)C1=O)C1CC1 (stereo not drawn) [Compound-1F, 1-(1,3-Benzodioxol-5-yl)-4-(cyclopropanecarbonyl)-2-(4-fluorophenyl)-3-hydroxy-2H-pyrrol-5-one]	no sedation	showed sedation	not significantly different	did not significantly alter	not significantly different	not altered	did not significantly change systolic and diastolic blood pressure	did not significantly affect heart rate	excellent tolerability	did not significantly change body weight	largely prevented	retarded the aging-induced decrease in epididymal sperm count	maintained sperm vitality	improved total sperm motility	significantly decreased the content of the senescence marker, Mpp1

From patent US20210015793A1, “COMPOUNDS FOR TREATING CNS- AND NEURODEGENERATIVE DISEASES” (ETH ZURICH, priority 2018, published 2021)
